Measurements as given in paper PMC3471820, “The CoxD Protein, a Novel AAA+ ATPase Involved in Metal Cluster Assembly: Hydrolysis of Nucleotide-Triphosphates and Oligomerization” (PLoS ONE, 2012).
Blank lines part the entries; values can stand above or below the molecule they belong to.

Legend:
CoxD [1] = target: T1, CoxD (Afipia carboxidovorans, UniProt Q51326); assay: inhibition of ATP hydrolysis, ADP release; assay type: biochemical; settings: 100 mM Tris/acetate pH 8.0, 1 mM Mg-acetate, 25 °C; refolded enzyme; 1 mM ATP; competes with ATP; slowly hydrolysable analogue
T1 construct: mainly hexamer, also dimer and tetramer (homo-oligomer)
T1 sequence (Q51326 1-295): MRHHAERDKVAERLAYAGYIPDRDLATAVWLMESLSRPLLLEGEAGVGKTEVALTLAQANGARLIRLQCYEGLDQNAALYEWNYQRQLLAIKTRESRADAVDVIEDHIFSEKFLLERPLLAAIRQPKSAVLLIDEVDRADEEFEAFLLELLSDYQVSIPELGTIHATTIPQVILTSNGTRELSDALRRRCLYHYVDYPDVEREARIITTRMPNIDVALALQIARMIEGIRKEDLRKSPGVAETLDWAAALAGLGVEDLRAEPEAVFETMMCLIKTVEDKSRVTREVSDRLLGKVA

CoxD [2] = target: T1, CoxD; assay: GTP hydrolysis, inorganic phosphate release; assay type: biochemical; settings: 100 mM Tris/acetate pH 8.0, 1 mM Na2GTP, 1 mM Mg-acetate, 25 °C; weak side activity
purified protein = substrate: Nc1ncnc2c1ncn2[C@@H]1O[C@H](COP(=O)(O)OP(=O)(O)OP(=O)(O)O)[C@@H](O)[C@H]1O; assay: purified protein; settings: 100 mM Tris/acetate pH 8.0, 1 mM Mg-acetate, 25 °C, refolded enzyme

Molecule: Nc1ncnc2c1ncn2[C@@H]1O[C@H](COP(=O)(O)OP(=O)(O)OP(O)(O)=S)[C@@H](O)[C@H]1O [ATP-γ-S]
inhibition of ATP hydrolysis (qualitative) (CoxD [1]): It very effectively competed with ATP for CoxD

GTP hydrolysis, inorganic phosphate release (CoxD [2]): formed from GTP
Molecule: Nc1nc2c(ncn2[C@@H]2O[C@H](COP(=O)(O)OP(=O)(O)OP(=O)(O)O)[C@@H](O)[C@H]2O)c(=O)[nH]1 [GTP]

B1: CoxD (Afipia carboxidovorans OM5) (protein)
chain: MRHHAERDKVAERLAYAGYIPDRDLATAVWLMESLSRPLLLEGEAGVGKTEVALTLAQANGARLIRLQCYEGLDQNAALYEWNYQRQLLAIKTRESRADAVDVIEDHIFSEKFLLERPLLAAIRQPKSAVLLIDEVDRADEEFEAFLLELLSDYQVSIPELGTIHATTIPQVILTSNGTRELSDALRRRCLYHYVDYPDVEREARIITTRMPNIDVALALQIARMIEGIRKEDLRKSPGVAETLDWAAALAGLGVEDLRAEPEAVFETMMCLIKTVEDKSRVTREVSDRLLGKVA
Km (purified protein): 690 ± 140 µM
